{"source": "patent US20100130597A1", "about": "“DNA-PKCS MODULATES ENERGY REGULATION AND BRAIN FUNCTION” (The United State of America, as represented by the …, priority 2007, published 2010)", "key": {"[1]": {"test": "Body weight, fat and lean mass, food intake and activity of treated mice", "format": "in vivo", "procedure": "To determine the source of the body weight difference observed as described in Example 9, the fat and lean mass of the animals used in these experiments were measured using NMR spectroscopy (Bruker BioSpin Corporation, Houston, Tex.). Body fat indices were calculated by dividing fat or lean mass by body weight.\n(§1) The therapeutic potential of DNA-PKcs inhibitors to treat insulin resistance and diabetes was tested in vivo using high-fat induced type 2 diabetes and obesity models. We examined the effects of DNA-PKcs inhibition by feeding C57BL6/J mice with Compound 36 (Cpd36) or vehicle. Mice were treated with Cpd36 (8 mg/kg body weight) twice daily by oral gavage for three months in all efficacy studies shown in FIGS. 40-47.\nBody weight was monitored in mice receiving Cpd36 (8 mg/kg body weight) twice daily by oral gavage for three months."}, "[2]": {"test": "Glucose levels, insulin tolerance and glucose tolerance tests in treated mice", "format": "in vivo", "settings": "for fed glucose levels in the serum: 8 mg/kg twice daily oral gavage three months", "procedure": "as §1"}, "[3]": {"test": "Treadmill running endurance", "format": "in vivo, mice", "procedure": "Previous studies have shown that increased expression of PPARδ or PGC-1α in skeletal muscle decreases exercise-induced fatigue. Therefore, tests were performed to ascertain what was the physical endurance of 4, 7 and 14 month-old SCID and WT mice using treadmill running. Prior to the exercise test, the mice were accustomed to and trained by running on an Exer-3/6 mouse treadmill (Columbus Instruments) at 7 m/min for 5 minutes for 3 days. For the endurance test, the treadmill speed was increased to 10 m/min and mice were allowed to run until exhaustion.\nThe therapeutic potential of DNA-PKcs inhibitors to reverse physical decline with aging was tested. In particular, the physical endurance of obese and middle-aged mice treated with Cpd36 was examined by treadmill running. Obese mice fed a high-fat diet that were treated with Cpd36 were able to run 40-50% farther over a given period of time than the control mice fed the same high fat diet (FIG. 45), as measured by totaling the distance run on a treadmill. Middle-aged mice (13 months) fed a breeder diet who were similarly treated with Cpd36 were also able to run 40-50% farther than middle aged mice that received no such treatment (data not shown)."}, "[4]": {"test": "Blood lactate during standardized treadmill test", "format": "in vivo, mice", "settings": "capillary blood during standardized treadmill test, FIG. 46A", "procedure": "The use of Cpd36 may also facilitate more rapid recovery following intense physical exertion. Blood lactate concentrations were measured in capillary blood during a standardized treadmill test."}, "Elevated plus maze test": {"test": "Elevated plus maze test", "format": "in vivo, mice", "procedure": "To evaluate whether SCID mice may also have altered anxiety, fear and depression-like traits, an elevated plus maze test was performed, which is a commonly used test to quantify the level of anxiety- and depression-like traits in rodents (Pellow et al. J. Neurosci. Methods 14: 149-67 (1985)). The elevated plus maze has narrow runways that are located 16 inches above the surface that are either closed or open. The animal is placed in the center of an elevated 4-arm maze in which 2 arms are open and 2 are enclosed. Mice generally avoid the open arms because of their fear of open space and height. The elevated plus-maze is used to determine the rodent's response to a potentially dangerous environment and anxiety-related behavior is measured by the degree to which the rodent avoids the unenclosed arms of the maze. Increase in the number of times the animal enters the open arm and the amount of time spent in the open arms reflect decreased anxiety and depression.\n(§2) Elevated plus maze tests, light/dark chamber tests, forced swim tests (FST) and hot plate tests were performed as described earlier."}, "Light/dark chamber test": {"test": "Light/dark chamber test", "format": "in vivo", "settings": "treated vs untreated mice", "procedure": "WT and SCID mice were tested in another anxiety test using the light-dark box (Bourin and Hascoet, Eur J Pharmacol 463:55 (2003)). The light-dark box test is based on the innate aversion of rodents to brightly illuminated areas and on the spontaneous exploratory behavior of rodents in response to a mildly stressful situation, that is, a novel environment and light (Crawley and Goodwin Pharmacol Biochem Behav 13:167, 1980). In the light-dark test, increased activity in the light compartment indicates decreased anxiety.\nas §2"}, "Forced swim test (FST)": {"test": "Forced swim test (FST)", "format": "in vivo, mice", "procedure": "as §2"}, "[5]": {"test": "Hot plate test, latency for pain reaction", "format": "in vivo, mice", "settings": "hot plate, FIG. 48E", "procedure": "Epidemiological studies indicate that people with mood disorders are twice as likely to have chronic pain compared to people without mood disorders (Ohayon et al., Arch. Gen. Psychiatry 60: 39-47 (2003)). Although it is possible that pain contributes to the depressed mood, it is also possible that perception of pain is increased in people with mood disorders. To determine whether SCID mice have altered pain tolerance, the latency for pain reaction to a hot plate was measured. […] (FIG. 30) and at 55° C.\nBecause tolerance to pain (Example 26) is also linked to the serotonergic pathways, measurements of the latency to pain reaction on hot plate after saline, serotonin reuptake inhibitor fluoxetine (Prozac) or serotonin antagonist GR38032F (Zofran) injection were made.\nas §2"}, "C2C12 cells [6]": {"tested_on": "C2C12 cells", "test": "Cellular lactate and pyruvate in C2C12 cells", "format": "cell-based", "settings": "0.8 μM"}, "C2C12 cells [7]": {"tested_on": "C2C12 cells", "test": "Intercellular NAD:NADH ratio in C2C12 cells", "format": "cell-based", "settings": "FIG. 54, Resveratrol 50 μM data not shown", "procedure": "To test whether DNA-PKcs inhibitor affects Sirt1 activity, the intercellular NAD:NADH ratio was measured in C2C12 cells treated with Cpd36."}, "[8]": {"test": "Blood-brain barrier penetration inferred from behavioural effects", "format": "in vivo, mice", "settings": "inferred from decreased anxiety/depression at a low-dose", "excerpt": "For any central nervous system drugs, a major rate-limiting step for uptake into the brain is BBB permeability. […] The BBB is an essential physiological barrier for the maintenance and regulation of brain function. It is comprised of brain microvascular endothelial cells that are connected by tight junctions. This transvascular route to the brain is impenetrable to the majority of drugs. Enhanced BBB permeability is obtained, for example, by increasing the lipid solubility of the water-soluble molecules."}}}
{"smiles": "O=c1cc(N2CCOCC2)oc2c(-c3cccc4c5c(sc34)CCCC5)cccc12", "note": "[Compound 36, 8-(6′,7′,8′,9′-Tetrahydrodibenzothiophen-4′-yl)-2-N-morpholinochromen-4-one]", "values": [{"measurement": "fat mass (NMR)", "setting": "[1]; HFD mice vs control, FIG. 44", "value": "reduction in fat mass"}, {"measurement": "lean mass (NMR)", "setting": "[1]; HFD mice vs control, FIG. 44", "value": "slight increase in lean mass"}, {"measurement": "body weight", "setting": "[1]; HFD mice, 8 mg/kg twice daily oral gavage three months, FIG. 43", "value": "did not increase in body weight substantially"}, {"measurement": "food intake", "setting": "[1]; HFD mice, 8 mg/kg twice daily oral gavage three months, data not shown", "value": "did increase"}, {"measurement": "activity of mice vs control HFD mice", "setting": "[1]; HFD mice, data not shown", "value": "no significant difference"}, {"measurement": "mesenteric fat", "setting": "[1]; mice on HFD 3 months, 8 mg/kg twice daily oral gavage 3 months, vs vehicle", "value": "reduced mesenteric fat significantly"}, {"measurement": "fed glucose levels in the serum", "setting": "[2]; HFD (obese) mice, FIG. 40A", "value": "lowered fed glucose levels"}, {"measurement": "fed glucose levels in the serum", "setting": "[2]; middle-aged mice (breeder diet 13 months), FIG. 40B", "value": "lowered fed glucose levels"}, {"measurement": "glucose tolerance", "setting": "[2]; middle-aged mice, FIG. 41", "value": "increased"}, {"measurement": "insulin sensitivity", "setting": "[2]; middle-aged mice, FIG. 41", "value": "increased"}, {"measurement": "glucose tolerance", "setting": "[2]; obese mice, FIG. 42", "value": "increased"}, {"measurement": "insulin sensitivity", "setting": "[2]; obese mice, FIG. 42", "value": "increased"}, {"measurement": "distance run on treadmill, farther than untreated", "setting": "[3]; middle-aged mice (13 months) on breeder diet, data not shown", "value": "40-50%"}, {"measurement": "distance run on treadmill, farther than control", "setting": "[3]; obese mice on high-fat diet, FIG. 45", "value": "40-50%"}, {"measurement": "serum lactate levels", "setting": "[4]", "value": "Significantly lower serum lactate levels"}, {"measurement": "levels of anxiety/depression", "setting": "Elevated plus maze test; elevated plus maze and light/dark chamber tests, FIGS. 47 and 48", "value": "dramatically lower levels of anxiety/depression"}, {"measurement": "time in closed arm of the elevated plus maze", "setting": "Elevated plus maze test; treated vs untreated mice", "value": "less time in a closed arm"}, {"measurement": "time in the light compartment", "setting": "Light/dark chamber test", "value": "more time in the light compartment"}, {"measurement": "time to enter the light chamber", "setting": "Light/dark chamber test", "value": "quicker to enter the light chamber"}, {"measurement": "mobility vs untreated mice", "setting": "Forced swim test (FST); FIG. 47D", "value": "more mobile"}, {"measurement": "immobility in the forced swim test", "setting": "Forced swim test (FST); data not shown", "value": "decreased immobility"}, {"measurement": "pain sensation", "setting": "[5]", "value": "decreased pain sensation"}, {"measurement": "lactate levels in cell extracts", "setting": "C2C12 cells [6]; 16 hrs, FIG. 46B", "value": "Reduced lactate levels"}, {"measurement": "Cellular pyruvate level", "setting": "C2C12 cells [6]; data not shown", "value": "increased"}, {"measurement": "intercellular NAD:NADH ratio", "setting": "C2C12 cells [7]", "value": "increased the NAD:NADH ratio"}, {"measurement": "blood-brain barrier (BBB) penetration", "setting": "[8]", "value": "can penetrate the blood-brain barrier (BBB) efficiently"}]}
